Results from patent US20200278355A1, “CONJUGATED PROTEINS AND USES THEREOF” (THE SCRIPPS RESEARCH INSTITUTE, priority 2017, published 2020).
Entries after “also recorded” stand apart in the source; their conditions may differ.

Legend:
CRY1 protein content = CRY1 protein content by immunoblotting in H460 cells; format: cell-based, human; conditions: 9 h
Method: FIG. 13A-FIG. 13E illustrate characterization of NR0B1 ligands in Keap1-mutant NSCLC cells. […] Top: Heat map depicting changes in gene expression between H460 cells expressing shNRF2, shNR0B1 or a control (shGFP) and those treated with vehicle (DMSO), BPK-29 or BPK-9 (30 μM, 12 h). Expression for each condition was first normalized to appropriate controls (shGFP or DMSO) and then normalized by row. Bottom: Overlap between gene sets regulated in BPK-29-treated vs shNR0B1 H460 cells. Gene set enrichment analysis (GSEA) was applied to all genes that were differentially expressed between shNR0B1-H460 cells and shGFP-H460 cells or between H460 cells treated with BPK-29 or DMSO. Genes were ranked based on their FDR. […] Gene expression changes for CRY1, DEPDC1, and CPLX2 were determined by qPCR and data represents mean values+SD (n=4-10). […] Gene expression changes for Cry1, DEPDC1, and CPLX2 were determined by qPCR and data represents mean values+SD (n=4-6). […] Protein expression was analyzed by immunoblotting. […] Top: H460 cells were treated with cycloheximide (100 μg/mL) for the indicated time points and NR0B1 protein content assessed by immunoblotting. […] NR0B1 protein content was determined following cycloheximide treatment and data were fit into a one-phase exponential decay model. […]

C274 of NR0B1 = molecular target: T1, C274 of NR0B1 (Homo sapiens, UniProt P51843); test: Site of labeling by LC-MS/MS of FLAG-NR0B1 tryptic peptides; format: binding; conditions: BPK-26 100 μM, 3 h in lysate, BPK-29 50 μM, 3 h in HEK293T cells
T1 construct: expressed in transfected cells; host or cells: HEK-293T, transient, pRK5-based vector
Method: FIG. 11A-FIG. 11F illustrate a covalent ligand targeting Cys274 disrupts NR0B1 protein complexes. […] See also FIG. 5C. […] Top: Structures of screening hit BPK-28 and synthesized derivatives. […] The In vitro-binding assay was performed as described in FIG. 5B using compounds at a concentration of 50 μM. Bottom: Data represent mean values±SD normalized to DMSO control. n=4/group. […] Top: Compounds were tested as described in FIG. 5B. Bottom: Graph of concentration-dependent inhibition of NR0B1-SNW1 interactions by the indicated compounds. Percent binding was normalized to vehicle (DMSO). Data represent mean values±SD (n=2-5/group). FIG. 11D and FIG. 11E show NR0B1 ligands BPK-26 (D) and BPK-29 (E) covalently modify C274 in NR0B1. Lysate generate from HEK293T cell expressing FLAG-NR0B1 was treated with DMSO or BPK-26 (100 μM, 3 h, D). […] FLAG-immunoprecipitates were prepared from each lysate and subjected to proteolytic digestion, whereupon tryptic peptides harboring C274 were analyzed by LC-MS/MS. […] Immunoprecipitates were analyzed by in-gel fluorescence-scanning to assess BPK-29yne labeling or by immunoblot for FLAG-NR0B1. […] In a modified in vitro binding assay shown in FIG. 5B, HEK293T cells expressing HA-NR0B1-WT or an HA-NR0B1-C274V mutant were treated with DMSO or BPK-26 (20 μM, 3 h), after which lysates were and interaction with FLAG-SNW1 assessed. […]

T1 sequence (P51843 whole entry): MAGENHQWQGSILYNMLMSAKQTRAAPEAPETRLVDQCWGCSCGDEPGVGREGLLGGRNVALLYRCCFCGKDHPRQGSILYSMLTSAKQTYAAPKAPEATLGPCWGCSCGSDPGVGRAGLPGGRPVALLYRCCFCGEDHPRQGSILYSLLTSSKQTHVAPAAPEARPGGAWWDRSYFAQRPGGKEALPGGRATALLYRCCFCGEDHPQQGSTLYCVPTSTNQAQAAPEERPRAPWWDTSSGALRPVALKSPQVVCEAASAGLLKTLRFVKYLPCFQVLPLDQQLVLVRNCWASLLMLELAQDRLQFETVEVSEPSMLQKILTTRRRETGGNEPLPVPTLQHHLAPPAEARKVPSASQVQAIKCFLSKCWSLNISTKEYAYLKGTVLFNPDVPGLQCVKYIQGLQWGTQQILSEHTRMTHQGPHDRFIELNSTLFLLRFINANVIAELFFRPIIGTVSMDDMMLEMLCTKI

| covalent modification of C274 of NR0B1 (C274 of NR0B1) | Structure (SMILES) | CRY1 protein content (CRY1 protein content) |
| --- | --- | --- |
| – | O=C(c1ccc(N2CCOCC2)cc1)N1CCC(CN(C(=O)CCl)c2cncnc2)CC1 [BPK-9, 2-chloro-N-((1-(4-morpholinobenzoyl)piperidin-4-yl)methyl)-N-(pyrimidin-5-yl)acetamide] | not observed |
| covalently modified C274 of NR0B1 | O=C(CCl)N(Cc1cccc(Cl)c1F)c1ccc(Cl)nc1 [BPK-26, 2-chloro-N-(3-chloro-2-fluorobenzyl)-N-(6-chloropyridin-3-yl)acetamide] | – |
| covalently modified C274 of NR0B1 | O=C(c1ccc(N2CCOCC2)cc1)N1CCCC(N(Cc2ccccc2)C(=O)CCl)CC1 (stereo not shown) [BPK-29, N-benzyl-2-chloro-N-(1-(4-morpholinobenzoyl)azepan-4-yl)acetamide] | reduces CRY1 protein content; also recorded: substantial reduction in CRY1 protein content |
